From patent US20230391786A1, “cGAS INHIBITORS” (Eli Lilly and Company, priority 2022, published 2023)
Structures can show the parent of a compound that is named as a salt.

Columns and labels:
[1] = tested on: cGAS activity in THP1 cells (IFNb as marker); test: Cellular assay to measure cGAS activity (IFNb production in PMA-differentiated THP1 cells stimulated by RDG-Adenovirus-GFP); assay type: cell-based, human; settings: Homo sapiens, THP-1, THP1 cells, PMA differentiated, RDG-Adenovirus-GFP 1000 MOI, IFNb AlphaLISA, overnight incubation; read-out: IC50 (μM), Cellular assay for Compounds 95-348
In short: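 PMA-differentiated THP1 cells were infected with RDG-Adenovirus-GFP at 1000 MOI for 4 h, then exposed overnight to test compounds. IFNb in the supernatant was quantified by AlphaLISA as a cGAS activity marker, and IC50 was fitted with a 4-parameter logistic equation.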

[2] = molecular target: recombinant human cGAS (Homo sapiens (Human), UniProt Q8N884); test: In vitro inhibition assay of cGAS activity (cGAMP production, RapidFire mass spectrometry); assay type: biochemical; settings: 10 nM recombinant human cGAS, 60 nM 75-bp dsDNA, ATP, GTP, room temperature 3 hours, read-out: IC50 (μM), In vitro inhibition assay for Compounds 95-348
Sequence of recombinant human cGAS (Q8N884 whole entry): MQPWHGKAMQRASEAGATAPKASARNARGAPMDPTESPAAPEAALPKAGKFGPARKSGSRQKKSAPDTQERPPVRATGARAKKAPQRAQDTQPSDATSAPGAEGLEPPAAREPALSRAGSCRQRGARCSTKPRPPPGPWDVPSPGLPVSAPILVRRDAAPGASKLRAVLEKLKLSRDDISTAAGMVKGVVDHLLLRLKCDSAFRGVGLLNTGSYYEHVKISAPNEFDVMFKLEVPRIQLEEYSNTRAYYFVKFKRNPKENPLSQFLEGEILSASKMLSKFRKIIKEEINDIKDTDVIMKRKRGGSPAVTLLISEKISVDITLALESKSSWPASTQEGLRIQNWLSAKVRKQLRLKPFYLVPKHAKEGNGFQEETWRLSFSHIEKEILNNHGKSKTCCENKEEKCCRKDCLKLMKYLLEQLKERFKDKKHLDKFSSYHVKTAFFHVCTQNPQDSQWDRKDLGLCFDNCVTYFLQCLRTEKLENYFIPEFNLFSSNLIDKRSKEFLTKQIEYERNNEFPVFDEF
In short: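 Full-length His6-tagged human cGAS (10 nM, E. coli-expressed) was incubated 3 h at room temperature with 60 nM 75-bp dsDNA, ATP, 50 μM GTP and compound at pH 7.5 with 5 mM MgCl2. cGAMP formation was measured by RapidFire mass spectrometry, and IC50 was taken from a 4-parameter logistic fit.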

SMILES | IC50 [1] [µM] | IC50 [2] [µM]
CC(=O)N1CCn2c(c(-c3cn[nH]c3)c3c(NCC#N)cc(Cl)c(Cl)c32)C1 [Example 254, 2-[[2-Acetyl-6,7-dichloro-10-(1H-pyrazol-4-yl)-3,4-dihydro-1H-pyrazino[1,2-a]indol-9-yl]amino]acetonitrile] | 0.938 | 0.03
O=C(CO)Nc1nnc(-c2[nH]c3c(Cl)c(Cl)ccc3c2-c2cn[nH]c2)o1 [Example 257, N-[5-[6,7-Dichloro-3-(1H-pyrazol-4-yl)-1H-indol-2-yl]-1,3,4-oxadiazol-2-yl]-2-hydroxy-acetamide] | > 10 | 0.0235
CC(=O)N1CCn2c(c(-c3cn[nH]c3)c3c(NC(=O)C(F)F)cc(Cl)c(Cl)c32)C1 [Example 263, N-[2-Acetyl-6,7-dichloro-10-(1H-pyrazol-4-yl)-3,4-dihydro-1H-pyrazino[1,2-a]indol-9-yl]-2,2-difluoro-acetamide] | 0.509 | 0.0173
O=C(Cc1ccn[nH]1)N1CCn2c(c(-c3cn[nH]c3)c3ccc(Cl)c(Cl)c32)C1 [Example 266, 1-[6,7-Dichloro-10-(1H-pyrazol-4-yl)-3,4-dihydro-1H-pyrazino[1,2-a]indol-2-yl]-2-(1H-pyrazol-5-yl)ethanone] | 9.93 | 0.0401
O=C(Cc1cnccn1)N1CCn2c(c(-c3cn[nH]c3)c3ccc(Cl)c(Cl)c32)C1 [Example 267, 1-[6,7-Dichloro-10-(1H-pyrazol-4-yl)-3,4-dihydro-1H-pyrazino[1,2-a]indol-2-yl]-2-pyrazin-2-yl-ethanone] | 6.27 | 0.0399
CC(=O)N1CCn2c(c(-c3cn[nH]c3)c3c(OCC(N)=O)cc(Cl)c(Cl)c32)C1 [Example 268, 2-[[2-Acetyl-6,7-dichloro-10-(1H-pyrazol-4-yl)-3,4-dihydro-1H-pyrazino[1,2-a]indol-9-yl]oxy]acetamide] | 5.87 | 0.0385
O=C(Nc1cc(Cl)c(Cl)c2c1c(-c1cn[nH]c1)c1n2CCN(C(=O)[C@@H]2COCCO2)C1)C(F)F [Example 273, N-[6,7-Dichloro-2-[(2 S)-1,4-dioxane-2-carbonyl]-10-(1H-pyrazol-4-yl)-3,4-dihydro-1H-pyrazino[1,2-a]indol-9-yl]-2,2-difluoro-acetamide] | 0.56 | 0.0206
O=C(Nc1cc(Cl)c(Cl)c2c1c(-c1cn[nH]c1)c1n2CCN(C(=O)CN2CCOC2=O)C1)C(F)F [Example 274, N-[6,7-Dichloro-2-[2-(2-oxooxazolidin-3-yl)acetyl]-10-(1H-pyrazol-4-yl)-3,4-dihydro-1H-pyrazino[1,2-a]indol-9-yl]-2,2-difluoro-acetamide] | 3.55 | 0.023
CN(C)C(=O)CCC(=O)N1CCn2c(c(-c3cn[nH]c3)c3c(NC(=O)C(F)F)cc(Cl)c(Cl)c32)C1 [Example 275, 4-[6,7-Dichloro-9-[(2,2-difluoroacetyl)amino]-10-(1H-pyrazol-4-yl)-3,4-dihydro-1H-pyrazino[1,2-a]indol-2-yl]-N,N-dimethyl-4-oxo-butanamide] | 4.01 | 0.0284
O=C1CC(CC(=O)N2CCn3c(c(-c4cn[nH]c4)c4c(NC(=O)C(F)F)cc(Cl)c(Cl)c43)C2)CCN1 (stereo not drawn) [Example 276, N-[6,7-Dichloro-2-[2-(2-oxo-4-piperidyl)acetyl]-10-(1H-pyrazol-4-yl)-3,4-dihydro-1H-pyrazino[1,2-a]indol-9-yl]-2,2-difluoro-acetamide] | > 10 | 0.0405
O=C(Nc1cc(Cl)c(Cl)c2c1c(-c1cn[nH]c1)c1n2CCN(C(=O)Cc2cnccn2)C1)C(F)F [Example 277, N-[6,7-Dichloro-2-(2-pyrazin-2-ylacetyl)-10-(1H-pyrazol-4-yl)-3,4-dihydro-1H-pyrazino[1,2-a]indol-9-yl]-2,2-difluoro-acetamide] | 1.58 | 0.0445
OC1Cc2c(-c3cn[nH]c3)c3ccc(Cl)c(Cl)c3n2C1 (stereo not drawn) [Example 278, 5,6-Dichloro-9-(1H-pyrazol-4-yl)-2,3-dihydro-1H-pyrrolo[1,2-a]indol-2-ol] | 2.19 | 0.0391
CC(=O)N1CCn2c(c(-c3cn[nH]c3)c3c(OCC#N)cc(Cl)c(Cl)c32)C1 [Example 280, 2-((2-Acetyl-6,7-dichloro-10-(1H-pyrazol-4-yl)-1,2,3,4-tetrahydropyrazino[1,2-a]indol-9-yl)oxy)acetonitrile] | 0.872 | 0.0087
N#CCOc1cc(Cl)c(Cl)c2c1c(-c1cn[nH]c1)c1n2CCN(C(=O)c2cnccn2)C1 [Example 286, 2-((6,7-Dichloro-2-(pyrazine-2-carbonyl)-10-(1H-pyrazol-4-yl)-1,2,3,4-tetrahydropyrazino[1,2-a]indol-9-yl)oxy)acetonitrile] | 0.455 | 0.0131
N#CCOc1cc(Cl)c(Cl)c2c1c(-c1cn[nH]c1)c1n2CCN(C(=O)Cn2cncn2)C1 [Example 287, 2-((2-(2-(1H-1,2,4-Triazol-1-yl)acetyl)-6,7-dichloro-10-(1H-pyrazol-4-yl)-1,2,3,4-tetrahydropyrazino[1,2-a]indol-9-yl)oxy)acetonitrile] | 5.11 | 0.0203

More lines, now with the values ahead:

IC50 [1] [µM] | IC50 [2] [µM] | SMILES
2.09 | 0.0326 | CCNc1cc(Cl)c(Cl)c2c1c(-c1cn[nH]c1)c1n2CCN(C(C)=O)C1 [Example 255, 1-(6,7-dichloro-9-(ethylamino)-10-(1H-pyrazol-4-yl)-3,4-dihydropyrazino[1,2-a]indol-2(1H)-yl)ethan-1-one hydrochloride]
4.8 | 0.0386 | CC(=O)N1CCn2c(c(-c3cn[nH]c3)c3c(NC(=O)C(F)(F)F)cc(Cl)c(Cl)c32)C1 [Example 256, N-[2-Acetyl-6,7-dichloro-10-(1H-pyrazol-4-yl)-3,4-dihydro-1H-pyrazino[1,2-a]indol-9-yl]-2,2,2-trifluoro-acetamide]
> 10 | 0.0757 | O=C(O)[C@@H]1CCCN1C(=O)c1[nH]c2c(Cl)c(Cl)ccc2c1-c1cn[nH]c1 [Example 258, (2 S)-1-[6,7-Dichloro-3-(1H-pyrazol-4-yl)-1H-indole-2-carbonyl]pyrrolidine-2-carb oxylic acid]
> 10 | 0.0306 | NC(=O)COc1cc(Cl)c(Cl)c2c1c(-c1cn[nH]c1)c1n2CCN(C(=O)CO)C1 [Example 269, 2-[[6,7-Dichloro-2-(2-hydroxyacetyl)-10-(1H-pyrazol-4-yl)-3,4-dihydro-1H-pyrazino[1,2-a]indol-9-yl]oxy]acetamide]
0.412 | 0.0202 | O=C(Nc1cc(Cl)c(Cl)c2c1c(-c1cn[nH]c1)c1n2CCN(C(=O)CO)C1)C(F)F [Example 272, N-[6,7-Dichloro-2-(2-hydroxyacetyl)-10-(1H-pyrazol-4-yl)-3,4-dihydro-1H-pyrazino[1,2-a]indol-9-yl]-2,2-difluoro-acetamide]
0.74 | 0.0072 | COCC(=O)N1CCn2c(c(-c3cn[nH]c3)c3c(OCC#N)cc(Cl)c(Cl)c32)C1 [Example 279, 2-((6,7-Dichloro-2-(2-methoxyacetyl)-10-(1H-pyrazol-4-yl)-1,2,3,4-tetrahydropyrazino[1,2-a]indol-9-yl)oxy)acetonitrile]
1 | 0.0089 | CN1CCO[C@@H](C(=O)N2CCn3c(c(-c4cn[nH]c4)c4c(OCC#N)cc(Cl)c(Cl)c43)C2)C1 [Example 281, (R)-2-((6,7-Dichloro-2-(4-methylmorpholine-2-carbonyl)-10-(1H-pyrazol-4-yl)-1,2,3,4-tetrahydropyrazino[1,2-a]indol-9-yl)oxy)acetonitrile]
2.99 | 0.00896 | Cc1nc(C(=O)N2CCn3c(c(-c4cn[nH]c4)c4c(OCC#N)cc(Cl)c(Cl)c43)C2)no1 [Example 282, 2-((6,7-Dichloro-2-(5-methyl-1,2,4-oxadiazole-3-carbonyl)-10-(1H-pyrazol-4-yl)-1,2,3,4-tetrahydropyrazino[1,2-a]indol-9-yl)oxy)acetonitrile]
4.27 | 0.0106 | Cn1cnc(C(=O)N2CCn3c(c(-c4cn[nH]c4)c4c(OCC#N)cc(Cl)c(Cl)c43)C2)n1 [Example 283, 2-((6,7-Dichloro-2-(1-methyl-1H-1,2,4-triazole-3-carbonyl)-10-(1H-pyrazol-4-yl)-1,2,3,4-tetrahydropyrazino[1,2-a]indol-9-yl)oxy)acetonitrile]
9.75 | 0.0124 | N#CCOc1cc(Cl)c(Cl)c2c1c(-c1cn[nH]c1)c1n2CCN(C(=O)CN2CCOC2=O)C1 [Example 284, 2-((6,7-Dichloro-2-(2-(2-oxooxazolidin-3-yl)acetyl)-10-(1H-pyrazol-4-yl)-1,2,3,4-tetrahydropyrazino[1,2-a]indol-9-yl)oxy)acetonitrile]
1.19 | 0.0126 | N#CCOc1cc(Cl)c(Cl)c2c1c(-c1cn[nH]c1)c1n2CCN(C(=O)[C@@H]2COCCO2)C1 [Example 285, (S)-2-((6,7-Dichloro-2-(1,4-dioxane-2-carbonyl)-10-(1H-pyrazol-4-yl)-1,2,3,4-tetrahydropyrazino[1,2-a]indol-9-yl)oxy)acetonitrile]
0.56 | 0.0242 | N#CCOc1cc(Cl)c(Cl)c2c1c(-c1cn[nH]c1)c1n2CCN(C(=O)C2COCCO2)C1 (stereo not drawn) [Example 288, 2-((6,7-Dichloro-2-(1,4-dioxane-2-carbonyl)-10-(1H-pyrazol-4-yl)-1,2,3,4-tetrahydropyrazino[1,2-a]indol-9-yl)oxy)acetonitrile]
